Test results from paper PMC12682947, “Identification of New KCNT1‐Epilepsy Drugs by In Silico, Cell, and Drosophila Modeling” (Annals of Neurology, 2025).
Read-outs that look alike come from different tables or passages of the source.

Columns and labels:
[1] = Plasma pharmacokinetics and brain uptake of antrafenine in mice (LC-MS); format: in vivo, male C57BL/6 mice; settings: male, C57BL/6, mouse; for Kp at 1 h / concentration at 1 h / Kp at 4 h / concentration at 4 h / concentration at 0.25 h / concentration at 24 h / half-life: iv; for AUC(0-inf): read-out: Plasma AUC0-inf; for clearance: read-out: Plasma CL; for Vd: read-out: Plasma VSS
Description: Plasma pharmacokinetics and brain uptake of antrafenine was analyzed in male C57BL/6 mice. Antrafenine was administered intravenously at 1 mg/kg and 3 mg/kg into the tail vein and plasma was collected over a 24‐hour sampling period (n = 3 mice/time point). Following administration, the brain was harvested at 4 times over 24 hours and snap frozen in dry ice and subsequently stored frozen (−80°C) until analysis. The concentration of antrafenine was determined using liquid chromatography–mass spectrometry. The in vivo study was conducted using established procedures in accordance with the Australian Code of Practice for the Care and Use of Animals for Scientific Purposes, and the study protocols were reviewed and approved by the Monash Institute of Pharmaceutical Sciences Animal Ethics Committee. See Supporting Information for detailed methods and results. […]
Plasma pharmacokinetics and brain uptake of antrafenine was analyzed in male C57BL/6 mice by the Monash University Centre for Drug Candidate Optimisation. Antrafenine was administered intravenously at 1 mg/kg and 3 mg/kg into the tail vein and plasma was collected over a 24 h sampling period (n=3 mice/time point). Following administration, brain was harvested at four times over 24 hours and snap frozen in dry ice and subsequently stored frozen (-80°C) until analysis. The concentration of antrafenine was determined using liquid chromatography–mass spectrometry (LC-MS).
4 hrs post IV administration of 3 mg/kg Antrafenine was taken as a representative time to compare plasma and brain concentrations. At 4 hrs we determined a mean plasma concentration of 47.5 nM (+5.9 nM SD) and a mean brain concentration of 13.9 nM (+3 nM SD). […]
Plasma pharmacokinetics and brain uptake of antrafenine
The systemic exposure of antrafenine was studied in non-fasted male C57BL/6 mice weighing 19.8 – 24.6 g. Mice had access to food and water ad libitum throughout the pre- and post-dose period. Antrafenine hydrochloride Mw 588.554 (Lot#10-KSS-51-2) was obtained from Toronto Research Chemicals/LGC Standards, Canada, and was dissolved in vehicle; 5% (v/v) DMSO, 25% (v/v) 40% (w/v) Trappsol in 0.9% (w/v) saline, 70% (v/v) 40 mM citrate buffered saline at pH 3.5 at concentrations of 0.5 mg/mL and 1.5 mg/mL.
On the day of dosing, each formulation was prepared by dissolving solid antrafenine in DMSO using vortexing and sonication prior to addition of 40% (w/v) Trappsol in 0.9% (w/v) saline followed by 40 mM citrate-buffered saline at pH 3.5. Each sample was vortexed to create a colorless / light yellow solution and was filtered through a 0.22 µm syringe filter prior to dosing.
Administration of antrafenine was performed by a single bolus IV injection into the tail vein of C57BL/6 male mice using a 1ml syringe with a 25G x 1” needle at a volume of 2 mL/kg. Each […]
formulation was dosed to mice by bolus injection into the lateral tail vein (2 mL/kg) and blood samples were collected at 1, 2, 5, 15 and 30 min; 1, 2, 4, 7.5 and 24 h post-dose (n=3 mice per time point for each formulation). A maximum of three blood samples were obtained from each mouse, with plasma samples being taken via submandibular bleed (approximately 120 μL).
Blood was collected into polypropylene Eppendorf tubes containing heparin as anticoagulant and stabilization cocktail (Complete® (containing a protease inhibitor cocktail and EDTA) and potassium fluoride) to minimize the potential for ex vivo compound degradation in blood/plasma samples. Once collected, blood samples were centrifuged immediately, supernatant plasma was removed, snap frozen in dry ice and stored at -80°C until analysis by LC-MS. In addition, at the 15 min, 1, 4 and 24 h post-dose time points, the whole brain was rapidly removed from the carcass soon after the blood collection. The whole brains were blotted to remove excess blood, placed into pre-weighed polypropylene vials and weighed. The brains were snap frozen in dry […]

[2] = cited from earlier work
[3] = plasma, 1 mg/kg, IV 1 mg/kg, individual mice, read-out: Plasma Concentration Individual
[4] = plasma, 1 mg/kg, IV 1 mg/kg, n = 3, read-out: Plasma Concentration Mean ± SD
[5] = plasma, 3 mg/kg, IV 3 mg/kg, individual mice, read-out: Plasma Concentration Individual
[6] = plasma, 3 mg/kg, IV 3 mg/kg, n = 3, read-out: Plasma Concentration Mean ± SD
[7] = plasma, IV administration at 1mg/kg
[8] = plasma, IV administration at 3mg/kg

With `O=C(OCCN1CCN(c2cccc(C(F)(F)F)c2)CC1)c1ccccc1Nc1ccnc2cc(C(F)(F)F)ccc12` [antrafenine] the Kp at 1 h ([1]; brain, 3 mg/kg, IV 3 mg/kg, individual mice, read-out: B:P ratio Individual) was 0.14, the Kp at 1 h ([1]; brain, 3 mg/kg, IV 3 mg/kg, n = 3, read-out: B:P ratio Mean ± SD) was 0.11 and the concentration at 1 h ([1]; brain, 3 mg/kg, IV 3 mg/kg, n = 3, read-out: Brain Parenchyma Concentration Mean ± SD) was 31.4 nM. For the same molecule, the Kp at 4 h ([1]; brain, 3 mg/kg, IV 3 mg/kg, 4 h, individual mice, read-out: B:P ratio Individual) was 0.32, the Kp at 4 h ([1]; brain, 3 mg/kg, IV 3 mg/kg, 4 h, n = 3, read-out: B:P ratio Mean ± SD) was 0.29 and the Kp at 4 h ([1]; brain, 3 mg/kg, IV 3 mg/kg, 4 hours after administration, read-out: concentration in the brain as percentage of that present in plasma) was roughly 0.3. It also gave a concentration at 4 h ([1]; brain, 3 mg/kg, IV 3 mg/kg, 4 hours after administration, read-out: mean brain concentration) of 13.9 nM, a concentration at 0.25 h [1, 3] of 313 nM and a concentration at 0.25 h [1, 4] of 297 nM. The concentration at 1 h [1, 3] was 122 nM, the concentration at 1 h [1, 4] was 113 nM and the concentration at 4 h ([1]; plasma, 1 mg/kg, IV 1 mg/kg, 4 h, individual mice, read-out: Plasma Concentration Individual) was 12.5 nM. For the same molecule, the concentration at 4 h ([1]; plasma, 1 mg/kg, IV 1 mg/kg, 4 h, n = 3, read-out: Plasma Concentration Mean ± SD) was 13.1 nM, the concentration at 24 h [1, 3] was 2 nM and the concentration at 24 h [1, 4] was 1.8 nM. It also gave a half-life ([1]; plasma, 1 mg/kg, plasma, IV administration at 1mg/kg, read-out: Apparent t1/2 (converted)) of 7.3 h, a concentration at 0.25 h [1, 5] of 738 nM and a concentration at 0.25 h [1, 6] of 697 nM. For the same molecule, the concentration at 1 h [1, 5] was 282 nM, the concentration at 1 h [1, 6] was 280 nM and the concentration at 4 h ([1]; plasma, 3 mg/kg, IV 3 mg/kg, 4 h, individual mice, read-out: Plasma Concentration Individual) was 53 nM. For the same molecule, the concentration at 4 h ([1]; plasma, 3 mg/kg, IV 3 mg/kg, 4 h, n = 3, read-out: Plasma Concentration Mean ± SD) was 47.5 nM, the concentration at 4 h ([1]; plasma, 3 mg/kg, IV 3 mg/kg, 4 hours after administration, read-out: mean plasma concentration) was 47.5 nM and the concentration at 24 h [1, 5] was 5.7 nM. For the same molecule, the concentration at 24 h [1, 6] was 6.5 nM, the half-life ([1]; plasma, 3 mg/kg, plasma, IV administration at 3mg/kg, read-out: Apparent t1/2 (converted)) was 7.4 h and the half-life ([1]; plasma, 3 mg/kg, plasma, IV at 1 and 3 mg/kg, each profile, read-out: apparent terminal half-life (converted)) was roughly 7 h. The AUC(0-inf) [1, 7] was 1.29 µM·h, the clearance [1, 7] was 22 mL/min/kg and the Vd [1, 7] was 2.3 L/kg. For the same molecule, the AUC(0-inf) [1, 8] was 3.14 µM·h, the clearance [1, 8] was 27.1 mL/min/kg and the Vd [1, 8] was 3.9 L/kg. For the same molecule, the mean plasma concentration ([2]; 900 mg/day (approximately 12 mg/kg for a 75 kg adult), ref Berry et al, 1983) was 202 nM, the tolerability in humans ([2]; 900 mg/day) was “well tolerated” and the “mean circulating plasma levels” value ([2]; patients with osteoarthritis) was 0.3 µM.
